Results taken from patent US9649394B2, “Compositions and methods for in vivo imaging” (The General Hospital Corporation, priority 2010, dated 2017).
Read-outs that look alike come from different tables or passages of the source.

Tests used:
PARP1 = target: T1, PARP1 (Homo sapiens, UniProt P09874); assay: Colorimetric PARP1 activity assay (Trevigen), IC50 determination; assay type: biochemical
T1 construct: purchased Trevigen, Gaithersburg, Md
Method: A commercially available colorimetric assay (Trevigen, Gaithersburg, Md.) was used to measure PARP activity in vitro in the presence of inhibitors. […] All experiments were carried out in triplicate. […] All reaction mixtures were adjusted to a final volume of 50 μL and a maximum final concentration 0.4% DMSO in assay buffer. The remainder of the assay was performed according to the manufacturer's instructions. PARP activity was measured by absorbance at 450 nm in each well using a Safire 2 microplate reader (Tecan Group, Männedorf, Switzerland). IC50 values were calculated using Prism software (GraphPad, La Jolla, Calif.).
A commercially available colorimetric assay (Trevigen, Gaithersburg, Md.) was used to measure PARP activity in vitro in the presence of inhibitors. […] All experiments were carried out in triplicate. […] All reaction mixtures were adjusted to a final volume of 50 μL and a maximum final concentration 0.4% DMSO in assay buffer. The remainder of the assay was performed according to the manufacturer's instructions. PARP activity was measured by absorbance at 450 nm in each well using a Safire2 microplate reader. IC50 values were calculated using the Prism software package.

HT1080 cells = assay: Life cell imaging, in vitro uptake and clearance kinetics; assay type: cell-based
Method: For in vitro kinetic studies, HT1080 cells were labeled with a 1 μM concentration of AZD2281 fluorophore conjugate in cell culture medium and imaged on an inverted Deltavision epifluorescence microscope using a 37° C. heated stage and 5% CO2 atmosphere for various times. After subtracting the background fluorescence, the data were fitted to an exponential association curve. […] Cells were washed twice in cell culture media and imaged continuously (BODIPYFL conjugate) or after various time points (BODIPY578 and BODIPY650). The loss in fluorescence was fitted to a biexponential decay curve.

PARP1/PARP2 = assay: Comparison of AZD2281-BODIPY FL uptake and PARP1/PARP2 expression in cell lines; assay type: cell-based; conditions: fixed cells, 20 minutes incubation
Method: RAW 264.7, Panc-1, MIA Paca2, A2780, OVCAR429, UCI 101, UCI 107, SKOV-3, OVCAR-3, and OV-90 cells (200 μL, 35,000 cells/mL) were each seeded in their respective growth medium on 96-well plates and allowed to attach for 48 hours. […] Cells were then fixed with paraformaldehyde (4% in PBS) and washed with ice cold PBS/0.1% Triton X-100/0.5% bovine serum albumin (3×200 μL, 3rd wash left for 30 min). Cells were incubated with anti-PARP-1/2 Rab (1:50; SCBT, Santa Cruz, Calif.) at 4° C. overnight. Cells were washed with PBS/0.1% Triton X-100 (3×200 μL) before stained with secondary IgG-Cy5 Gab (1:100; Millipore, Billerica, Mass.) for 3 h at 4° C. Cells were then washed with PBS (1×, 200 μL), stained with Hoechst (Invitrogen, Carlsbad, Calif.) and blue whole cell stain (Thermo Scientific, Waltham, Mass.) for 30 minutes at room temperature, and washed with PBS (3×, 200 μL) before imaging and quantification of the respective fluorescence signals.

[1] = test system: SKOV-3, MIA Paca2, A2780, Panc-1 tumors; assay: Tumor versus muscle fluorescence uptake in Nu/Nu mice, excised tissues; assay type: in vivo; conditions: 75 nmol via tail vein, 45 minutes
Method: For ^18F-AZD2281 standardized uptake values, five Nu/Nu mice each received four subcutaneous injections containing SKOV-3, MIA Paca2, A2780, or Panc-1 cells in the flanks and shoulders (2.5×10^6 cells in 100 μL 70:30 PBS/BD matrigel per injection) (BD Biosciences, Bedford, Mass.). Tumors were allowed to grow for two weeks before imaging. 75 nmol of AZD2281-BODIPYFL were dissolved in 75 μL of 1:1:DMAC:solutol and 75 μL of PBS and injected via tail vein. The agent was allowed to circulate and clear for 45 minutes, before the mice were sacrificed, tumors and muscle tissue excised and the relative fluorescence uptake of tissues quantified against mice which were injected with just 1:1:DMAC:solutol.

[2] = test system: HT-1080 cells expressing H2B-apple; assay: Intravital imaging, window chamber mice with HT-1080 H2B-apple cells; assay type: in vivo
Method: For the in vivo studies, mice with window chambers were implanted with 1 million HT-1080 cells expressing H2B-apple fluorescence protein. 75 nmol of AZD2281-BODIPYFL were dissolved in 75 μL of 1:1:DMAC:solutol and 75 μL of PBS and injected via tail vein. Images of the vessels were taken using a 20× water immersion objective on a laser scanning confocal microscope while the mouse was anesthetized with isoflurane.

MDA-MB-436 cells = assay: AZD2281-TCO / Texas Red-Tz bioorthogonal reaction and imaging in live MDA-MB-436 cells; assay type: cell-based; conditions: sequential AZD2281-TCO (7)/Texas Red-Tz (8)
Method: (§1) Cells were then incubated with Texas Red-Tz (8) (25 μL, 20 μM) for 20 minutes (37° C.) before the medium was removed and cells were washed (1×, medium, 500 μL). […] Cells were washed with PBS (3×500 μL), fixed with paraformaldehyde (4% in PBS) and washed with PBS (3×500 μL, time between each wash=5 minutes). PBS was removed and cells mounted using Prolong Gold (Invitrogen, Carlsbad, Calif.) before imaging.
as §1, with “min). […]” for “minutes). PBS was removed and cells mounted using Prolong Gold (Invitrogen, Carlsbad, Calif.) before imaging.”
Cells were observed on a Nikon 80i (Nikon, Tokyo JP) microscope equipped with an ImagEM camera (Hammamatsu Photonics, Tokyo JP). […] For each image, both cell structures and nuclei structures have been obtained using the appropriate fluorescence filters and appropriate excitation signal levels to avoid collecting auto-fluorescence. […] Within each image and for each cell, the fluorescence signal for the total cell and the signal in the nuclear area was calculated using the corresponding mask as a spatial filter. […] The ratio of the fluorescent signal in the cytosol region over the signal in the nuclear region was then calculated. […]

MDA-MB-436 tumors = assay: PET-CT imaging of MDA-MB-436 tumor-bearing mice, with and without AZD2281; assay type: in vivo; conditions: 1 mg AZD2281 BID, then re-injection of probe
Method: Non-tumor bearing Nu/Nu mice were injected with (6^18F) and used for organ distribution immediately after injection over a time period of 2 hours. Tumor-bearing mice received s.c. injections with 5×10^6 MDA-MB-436 cells (American Type Culture Collection) in Matrigel (BD Biosciences) into each flank and underwent imaging 7 days later (injection of (6^18F) and immediate imaging over a time period of 2 hours). All mice were anesthetized (isoflurane 1.5%; O2 2 L/min) during imaging with a gas delivery system integrated into a multimodal imaging cartridge. All animal experiments were approved by Massachusetts General Hospital's Institutional Review Committee.
Images were acquired on the Siemens Inveon PET-CT. Each PET acquisition was 120 minutes in duration. PET was reconstructed from 600 million coincidental 511 keV photon counts on a series of LSO (lutetium oxyorthosilicate) scintillating crystals. Counts were rebinned in 3D by registering photons spanning no more than 3 consecutive rings and reconstructed into sinograms using a high resolution Fourier Rebin algorithm. Sinograms also yielded a 3D mapping of positron signal using a 2D filtered back-projection algorithm and a Ramp filter with a Nyquist cut-off of 0.5. […] Data are expressed as standard uptake values (SUV), which normalizes activity measurements to body weight and injected activity. […]

A2780 tumors = assay: Non-invasive monitoring of treatment response in tumor-bearing Nu/Nu mice (SUV); assay type: in vivo; conditions: treatment with Olaparib
Method: ^18F-AZD2281 was synthesized as described herein. Nu/Nu mice bearing either A2780 tumors (treatment response) or A2780, Paca2, Panc1 and SKOV3 (differential uptake) were injected with the hot probe (500-750 μCi) and imaged ˜1.5 hours thereafter. Treatment consisted of injection of 0.5-1.0 mg AZD2281 (Olaparib) 18 hours before imaging (ip, interperitoneal) or ˜1.5-3.5 hours before imaging (iv, intravenous). Uptake was determined non-invasively by drawing SUVs (Standard Uptake Values).

[3] = 1 μM, HT1080, exponential association fit
[4] = labeled at 1 μM for 1 hour, washed, biexponential decay fit

T1 sequence (P09874 whole entry): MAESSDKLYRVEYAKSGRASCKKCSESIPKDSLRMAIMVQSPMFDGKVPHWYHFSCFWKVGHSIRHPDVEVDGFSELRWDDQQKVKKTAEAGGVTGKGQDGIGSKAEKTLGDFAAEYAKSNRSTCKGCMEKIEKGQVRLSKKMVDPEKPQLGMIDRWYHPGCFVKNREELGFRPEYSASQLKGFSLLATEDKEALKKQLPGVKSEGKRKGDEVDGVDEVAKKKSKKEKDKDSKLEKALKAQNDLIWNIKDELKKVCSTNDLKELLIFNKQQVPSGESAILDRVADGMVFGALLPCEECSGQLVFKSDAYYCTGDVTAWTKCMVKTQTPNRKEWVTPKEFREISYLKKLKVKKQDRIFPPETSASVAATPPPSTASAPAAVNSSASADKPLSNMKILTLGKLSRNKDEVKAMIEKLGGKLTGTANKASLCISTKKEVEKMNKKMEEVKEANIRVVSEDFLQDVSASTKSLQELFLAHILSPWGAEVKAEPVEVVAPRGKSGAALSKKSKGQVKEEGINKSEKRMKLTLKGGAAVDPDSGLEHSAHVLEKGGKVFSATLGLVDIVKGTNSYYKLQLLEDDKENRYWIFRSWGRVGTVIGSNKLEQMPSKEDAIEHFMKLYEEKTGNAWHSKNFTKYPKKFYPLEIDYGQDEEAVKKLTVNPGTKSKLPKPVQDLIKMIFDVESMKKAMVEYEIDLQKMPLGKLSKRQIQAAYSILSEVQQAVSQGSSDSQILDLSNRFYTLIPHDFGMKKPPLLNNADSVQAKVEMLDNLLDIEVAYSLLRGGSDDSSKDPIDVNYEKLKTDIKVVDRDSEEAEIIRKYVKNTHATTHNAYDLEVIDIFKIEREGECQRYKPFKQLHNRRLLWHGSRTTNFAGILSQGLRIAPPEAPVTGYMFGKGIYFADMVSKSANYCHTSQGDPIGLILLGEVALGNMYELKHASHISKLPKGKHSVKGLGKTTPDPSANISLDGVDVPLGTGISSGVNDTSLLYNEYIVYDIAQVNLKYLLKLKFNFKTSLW

`O=C(CF)N1CCN(C(=O)c2cc(Cc3n[nH]c(=O)c4ccccc34)ccc2F)CC1` [17^19F] was tested. Which IC50 (PARP1) did it give?
The IC50 was 5.2 ± 1.1 nM.

For `Cc1cc(C)n2c1C=C1C=CC(CCC(=O)N3CCN(C(=O)c4cc(Cc5n[nH]c(=O)c6ccccc56)ccc4F)CC3)=[N+]1[B-]2(F)F` [AZD2281-BODIPY FL], which “Uptake, Nucleus” value (HT1080 cells; [3]) is on record?
Its value is “Nucleus = 1.1 min”.

And the “Uptake, Perinuclear” value (HT1080 cells; [3])?
The value was “Perinuclear = 1.2 min”.

And the “Clearance (weighted), Nucleus” value (HT1080 cells; [4])?
Its value is “Nucleus = slow”.

And the “Clearance (weighted), Perinuclear” value (HT1080 cells; [4])?
The value was “Perinuclear = 1.7 min”.

And the cellular localization (PARP1/PARP2)?
The cellular localization was “localizes with the nucleus”.

What about the “uptake in muscle compared to tumor tissues” value [1] of the same compound?
Its value is “very little of the compound gets taken up by muscle cells compared to the tumor tissues”.

And the “time after which non-specific uptake cleared, revealing nuclear uptake” value ([2]; 75 nmol via tail vein)?
Its value is 1 h.

What about the “distribution in tumor after iv injection” value ([2]; first in vascular system, then tumor cells) of the same compound?
Its value is “concentrates in each and every tumor cell of the tumor”.

For `O=C(CCCC(=O)N1CCN(C(=O)c2cc(Cc3n[nH]c(=O)c4ccccc34)ccc2F)CC1)NCCNC(=O)C1C[C@@H]2C=C[C@H]1C2` (stereo partly shown) [AZD2281-NOB], which IC50 (PARP1; Example 1, 0.5 units PARP HSA, 10 minutes, read-out: IC50) is on record?
Its IC50 is 10.1 ± 1.3 nM.

Which “spatial correlation of Texas Red staining with anti-PARP1 Mab staining” value (MDA-MB-436 cells) does the source give for `O=C(CCCC(=O)N1CCN(C(=O)c2cc(Cc3n[nH]c(=O)c4ccccc34)ccc2F)CC1)NCCNC(=O)OC1CC/C=C/CCC1` (stereo not shown) [AZD2281-TCO] here?
Its value is “excellent spatial correlation”.

`O=C(c1cc(Cc2n[nH]c(=O)c3ccccc23)ccc1F)N1CCN(C(=O)C2CC2)CC1` [AZD2281] was tested. Which “effect on uptake of 18F-AZD2281 into tumors” value (MDA-MB-436 tumors) did it give?
Its value is “inhibition of the probe s uptake into the tumors”.

How did the “ability to distinguish between treated and untreated tumors (tumor/muscle signal intensity)” value (A2780 tumors) turn out when `OC[C@H]1O[C@@H](O)[C@H]([18F])[C@@H](O)[C@@H]1O` [FDG] was run?
The value was “not able”.
